In paper PMC4726147, “Structural Insights into the Quaternary Catalytic Mechanism of Hexameric Human Quinolinate Phosphoribosyltransferase, a Key Enzyme in de novo NAD Biosynthesis” (Scientific Reports, 2016):
Values belong to the compound of their own block, whether it stands above or below them.

Legend:
Assay type in all cases: binding
[1] = target: T1, Quinolinate phosphoribosyltransferase (HsQPRT) (Homo sapiens, UniProt Q15274); experiment: ITC
T1 construct: gene QPRT; full-length HsQPRT (residues 1–297), hexamer
T1 sequence (Q15274 whole entry, the tested form may be a part): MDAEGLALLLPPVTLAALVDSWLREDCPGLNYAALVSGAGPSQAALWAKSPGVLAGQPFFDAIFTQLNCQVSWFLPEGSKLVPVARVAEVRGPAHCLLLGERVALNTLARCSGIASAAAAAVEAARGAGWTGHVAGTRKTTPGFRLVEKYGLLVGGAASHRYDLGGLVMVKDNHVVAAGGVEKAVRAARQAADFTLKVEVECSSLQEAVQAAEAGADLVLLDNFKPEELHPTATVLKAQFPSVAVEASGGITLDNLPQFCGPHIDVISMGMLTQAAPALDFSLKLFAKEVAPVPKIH

[2] = target: T1, Quinolinate phosphoribosyltransferase (HsQPRT); experiment: ITC and crystal structure ([…] Å)
[3] = target: T2, Quinolinate phosphoribosyltransferase (HsQPRT) NΔ9 mutant (Homo sapiens, UniProt Q15274, NΔ9); experiment: ITC
T2 construct: gene QPRT; NΔ9, N-terminal truncated (helix α1 removed), dimer
T2 sequence (Q15274 10-297, stated change not applied): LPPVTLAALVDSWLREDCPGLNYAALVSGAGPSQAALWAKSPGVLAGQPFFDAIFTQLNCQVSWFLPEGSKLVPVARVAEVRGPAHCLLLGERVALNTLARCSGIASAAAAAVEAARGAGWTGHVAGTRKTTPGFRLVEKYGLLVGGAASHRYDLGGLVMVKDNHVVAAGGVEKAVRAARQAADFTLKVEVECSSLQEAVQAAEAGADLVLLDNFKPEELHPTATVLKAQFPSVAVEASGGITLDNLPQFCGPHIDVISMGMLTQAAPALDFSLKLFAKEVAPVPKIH

[4] = target: T1, Quinolinate phosphoribosyltransferase (HsQPRT); experiment: co-crystal structure ([…] Å)

Kd [1]: 5.2 ± 0.2 µM
Structure (SMILES): O=C(O)c1ccccc1C(=O)O [phthalic acid]

Kd [2]: 4.8 ± 0.4 µM | Kd [3]: 401 ± 56 µM
Structure (SMILES): O=C(O)c1cccnc1C(=O)O [QA, quinolinic acid]

Structure (SMILES): O=C(O)c1ccc[n+]([C@@H]2O[C@H](COP(=O)([O-])O)[C@@H](O)[C@H]2O)c1 [NAMN, nicotinic acid mononucleotide]
co-crystal structure (2.6 Å) [4]: clear density for two loops (loops L and O) and the substrate molecules (QA and NAMN) bound to the protein
